The source of these data is patent publication US20100249402A1, “NOVEL BENZAMIDINE DERIVATIVES, PROCESS FOR THE PREPARATION THEREOF AND PHARMACEUTICAL COMPOSITION FOR PREVENTING OR TREATING OSTEPOROSIS COMPRISING THE SAME” (DONG WHA PHARMACEUTICAL CO. LTD., priority 2007, published 2010).

Like-named read-outs stand apart in the source and are kept apart here.

In data set [1] the test system is osteoclast differentiation. Nature of the data set: Inhibitory effects on osteoclast differentiation (bone marrow cell/osteoblast co-culture, TRAP staining). The conditions noted are these: Mus musculus, Osteoclast, 168 h, read-out: Inhibition of osteoclast differentiation (%). The class given is cell-based, mice. As for the experimental part:
The effect of the benzamidine derivative of the present invention on osteoclast formation and differentiation process was evaluated via co-culture with an osteoblast.
Tibia was aseptically ectomized from 6 to 8-week-old male ddY mice to harvest bone marrow cells by using a syringe (21G, Korea Green Cross). The bone marrow cells were suspended in 5 mL of an α-MEM medium (Gibco BRL Co., supplemented with sodium bicarbonate (2.0 g/L), streptomycin (100 mg/L) and penicillin ([…]), filtered and then sterilized). The harvested cells were centrifuged at 600×g for 5 minutes to collect the whole quantity. To remove the red blood cells in the bone marrow cells, 3 mL of Tris HCl (0.83% NH4Cl, pH 7.5) was added and well mixed. After centrifugation, the numbers of the eukaryotic cells in the harvested bone marrow cells were counted, and then immediately used for a co-culture system.
The progenitor bone and the parietal bone were aseptically ectomized from 1 to 2-day-old neonatal ICR mice, washed with a phosphate butter solution (PBS), and treated with a mixed enzyme solution (0.2% collagenase and 0.1% dispase) six to seven times (10, 10, 10, 20, 20 and 20 min), and then 3 to 6 groups of the cells, in which a large volume of cells having osteoblastic characteristics were contained, were intensively collected, and washed with medium (serum-free α-MEM). The washed cells were cultured in the α-MEM medium containing 10% FBS for 2 to 3 days. After sub-culturing, the collected cells were used for this experiment, and diluted to a concentration of 1×10^6 cells/mL for storage at −70° C.
The benzamidine derivative of the present invention was dissolved in a sterile distilled water or ethanol to be diluted to a desired concentration. The final volume of the sample added to the cell culture medium was set at a ratio of 1:1000.
The bone marrow cells prepared in the above 1-1 and the osteoblast were co-cultured. Both the bone marrow cells (25,000 cells/cm^2) and the osteoblast (10,000 cells/cm^2) were plated in a 96-well plate using α-MEM medium containing FBS, and then cultured with the samples to be tested for 7 days. Differentiation factors, such as dexamethasone (10^−7 M) and vitamin D (10^−8 M), were also co-added to the medium from the first day of cultivation. The medium was changed with a fresh media containing a mixture of the samples and the differentiation factors every 2 to 3 days.
TRAP was used as a marker to measure the matured osteoclast in consideration of its characteristics showing a positive reaction to a TRAP staining solution.
The TRAP staining solution was prepared in such the manner that 5 mg of naphthol AS-MS phosphate (sigma N-4875) as a substrate and 25 mg of a coloring agent (Fast Red Violet LB salt) were dissolved in N,N-dimethylformamide (about 0.5 mL). 50 ml of a 0.1 N […] buffer solution containing 50 mM tartaric acid (pH 5.0) was added thereto, and the mixture was stored in a refrigerator prior to use as a staining solution.
After culturing the cells for 7 days, the medium was removed from the wells, the cells were once washed with PBS, and then fixed with PBS containing 10% formalin for 2 to 5 min. The cells were fixed again in a mixed solution of ethanol and acetone (1/1) for about 1 min, and dried off. The cells were further treated by the TRAP staining solution for 15 minutes, and washed with water and dried off. The osteoclasts with 3 or more nuclei showing a TRAP-positive reaction were counted under a microscopic examination. Each of tests was confirmed at least three times. The inhibitory effect on osteoclast differentiation of each experimental group, relative to negative controls, was expressed as a percentage (%).

In another data set the test system is MC3T3-E1. Kind of data set: Cytotoxicity test (MTT), MC3T3-E1. The class given is cell-based. The conditions noted are these: 10^−6 M, cultured for 72 hrs, in comparison with the control group. As for the experimental part:
(§1) The cytotoxic effect of the benzamidine derivative of the present invention was evaluated by carrying out the experiment described below.
(§2) The test substance was diluted in an appropriate solvent at a concentration of 10^−2 M. This substance was diluted in an appropriate culture medium for the cells used in the cytotoxicity test to a concentration of 10^−6M, and loaded into a 96-well plate in 100 μl per well. The cell lines to be used in the cytotoxicity test were plated on a 96-well plate in a dose of 1.0×10^4 cell/100 μl per well, and cultured for 72 hrs. 25 μl of MTT[3-(4,5-dimethyl-2-thiazolyl)-2,5-diphenyl-2H-tetrazolium bromide] dissolved in PBS (2 mg/mL) were added before 4 hrs of the end of culture. After completion of the reaction, the plates were centrifuged, the medium was discarded and 100 μl of DMSO was added to dissolve formazan. Finally, the absorbance of the developed plates was measured at 540 nm. The survival rates of the cells were expressed as % concentration values in comparison with the control group.

The next data set deals with calvaria. Kind of data set: Cytotoxicity test (MTT), calvaria. The note with it: 10^−6 M, cultured for 72 hrs, in comparison with the control group. The class given is cell-based. As for the experimental part:
as §1, §2

For the next data set, the system named is HOS. Kind of data set: Cytotoxicity test (MTT), HOS. In kind it is cell-based. The note with it: 10^−6 M, cultured for 72 hrs, in comparison with the control group. As for the experimental part:
as §1, §2

The mark [2] stands for this setting: 1 μm, 7 days co-culture, TRAP-positive osteoclasts with 3 or more nuclei, relative to negative controls.

The inhibition is the relative decrease from the control value, in per cent. As to `N=C(NO)c1ccc(OCCCCCOc2ccc(-c3nc(N4CCCCC4)sc3N3CCOCC3)cc2)cc1` [Example 52, N-hydroxy-4-{5-[4-(5-morpholin-4-yl-2-piperidin-1-yl-thiazol-4-yl)-phenoxy]-pentyloxy}-benzamidine], in data set [1] (setting [2]), the inhibition at 1 µM was 91%. In addition, the Cell survival rate with MC3T3-E1 worked out at 94%; with calvaria it was 97%; in the data set with HOS, 97%.

For `N=C(NO)c1ccc(OCCCCCOc2ccc(-c3nc(N4CCOCC4)sc3N3CCCC3)cc2)cc1` [Example 7, N-hydroxy-4-{5-[4-(2-morpholin-4-yl-5-pyrrolidin-1-yl-thiazol-4-yl)-phenoxy]-pentyloxy}-benzamidine], in data set [1], the inhibition at 1 µM came to 58%. Also, the Cell survival rate was 99% in the data set on MC3T3-E1, 101% in the data set on calvaria and 92% in the data set with HOS.

On to `CNc1nc(-c2ccc(OCCCCCOc3ccc(C(=N)NO)cc3)cc2)c(CN2CCOCC2)s1` [Example 50, N-hydroxy-4-{5-[4-(2-methylamino-5-morpholin-4-ylmethyl-thiazol-4-yl)-phenoxy]-pentyloxy}-benzamidine], for which the inhibition at 1 µM in data set [1] (setting [2]) came to 100%. Moreover, the figures for the Cell survival rate in the data set with MC3T3-E1, in the data set with calvaria and with HOS were 91%, 90% and 102%, respectively.

As for `N=C(NO)c1ccc(OCCCCCOc2ccc(-c3nc(-c4cccnc4)sc3N)cc2)cc1` [Example 47, N-hydroxy-4-{5-[4-(5-amino-2-pyridin-3-yl-thiazol-4-yl)-phenoxy]-pentyloxy}-benzamidine], the inhibition at 1 µM in data set [1] (setting [2]) is 86%. Moreover, the Cell survival rate in the data set with MC3T3-E1 amounted to 97%; in the data set with calvaria, 99%; in the data set with HOS it was 112%.

Regarding `Cc1nc(-c2ccc(OCCCCCOc3ccc(C(=N)NO)cc3)cc2)c(NC(=O)c2cccnc2)s1` [Example 39, N-hydroxy-4-[5-(4-{2-methyl-5-[(pyridine-3-carbonyl)-amino]-thiazol-4-yl}-phenoxy)-pentyloxy]-benzamidine], in data set [1] (setting [2]), the inhibition at 1 µM came to 65.5%. The Cell survival rate with MC3T3-E1 was determined as 95.0%; in the data set with calvaria, 86.3%; in the data set with HOS it was 92.1%.

As for `Cc1nc(-c2ccc(OCCCCCOc3ccc(C(=N)NO)cc3)cc2)c(CN2CCCC2)s1` [Example 19, N-hydroxy-4-{5-[4-(2-methyl-5-pyrrolidin-1-ylmethyl-thiazol-4-yl)-phenoxy]-pentyloxy}-benzamidine], the inhibition at 1 µM in data set [1] (setting [2]) stood at 100%. The figures for the Cell survival rate in the data set with MC3T3-E1, in the data set with calvaria and in the data set with HOS were 103%, 97% and 90%, respectively.

Take `Cc1nc(-c2ccc(OCCCCCOc3ccc(C(=N)NO)cc3)cc2)c(CN2CCOCC2)s1` [Example 8, N-hydroxy-4-{5-[4-(2-methyl-5-morpholin-4-ylmethyl-thiazol-4-yl)-phenoxy]-pentyloxy}-benzamidine]: the inhibition at 1 µM in data set [1] (setting [2]) came to 96.4%. Moreover, the figures for the Cell survival rate with MC3T3-E1, in the data set on calvaria and in the data set on HOS were 94.7%, 90.7% and 102.3%, respectively.

Turning to `CCN(C)c1nc(-c2ccc(OCCCCCOc3ccc(C(=N)NO)cc3)cc2)c(CN2CCOCC2)s1` [Example 26, N-hydroxy-4-(5-{4-[2-(ethyl-methyl-amino)-5-morpholin-4-ylmethyl-thiazol-4-yl]-phenoxy}-pentyloxy)-benzamidine], the inhibition at 1 µM in data set [1] (setting [2]) was 98%. Moreover, the results for the Cell survival rate in the data set on MC3T3-E1, in the data set on calvaria and in the data set on HOS were 98%, 107% and 102%, respectively.

Consider `Cc1nc(-c2ccc(OCCCCCOc3ccc(C(=N)NO)cc3)cc2)c(CN(C)C)s1` [Example 12, N-hydroxy-4-{5-[4-(5-dimethylaminomethyl-2-methyl-thiazol-4-yl)-phenoxy]-pentyloxy}-benzamidine], for which the inhibition at 1 µM in data set [1] amounted to 64.9%. Besides, the Cell survival rate turned out to be 98.8% with MC3T3-E1, 95.6% in the data set with calvaria and 107.5% with HOS.

For the compound `N=C(NO)c1ccc(OCCCCCOc2ccc(-c3nc(N)sc3N3CCOCC3)cc2)cc1` [Example 3, N-hydroxy-4-{5-[4-(2-amino-5-morpholin-4-yl-thiazol-4-yl)-phenoxy]-pentyloxy}-benzamidine], in data set [1] (setting [2]), the inhibition at 1 µM amounted to 73.2%. Also, the Cell survival rate with MC3T3-E1 was determined as 94.6%; in the data set with calvaria it was 97.7%; with HOS it was 89.0%.

For `CCCNCc1sc(C)nc1-c1ccc(OCCCCCOc2ccc(C(=N)NO)cc2)cc1` [Example 16, N-hydroxy-4-{5-[4-(2-methyl-5-propylaminomethyl-thiazol-4-yl)-phenoxy]-pentyloxy}-benzamidine], the inhibition at 1 µM in data set [1] worked out at 100%. Moreover, the Cell survival rate with MC3T3-E1 amounted to 92%; with calvaria, 95%; in the data set with HOS, 100%.

As for `N=C(NO)c1ccc(OCCCCCOc2ccc(-c3nc(N4CCOCC4)sc3CN3CCOCC3)cc2)cc1` [Example 51, N-hydroxy-4-{5-[4-(2-morpholin-4-yl-5-morpholin-4-ylmethyl-thiazol-4-yl)-phenoxy]-pentyloxy}-benzamidine], the inhibition at 1 µM in data set [1] (setting [2]) was found to be 95%. For the same compound, the Cell survival rate in the data set with MC3T3-E1 is given as 88%; with calvaria it was 102%; in the data set on HOS, 91%.

In the case of `Cc1nc(-c2ccc(OCCCCCOc3ccc(C(=N)NO)cc3)cc2)c(N2CCN(C)CC2)s1` [Example 2, N-hydroxy-4-(5-{4-[2-methyl-5-(4-methyl-piperazin-1-yl)-thiazol-4-yl]-phenoxy}-pentyloxy)-benzamidine], the inhibition at 1 µM in data set [1] (setting [2]) was 78.6%. Also, the Cell survival rate stood at 91.8% in the data set on MC3T3-E1, 87.9% in the data set on calvaria and 107.0% in the data set on HOS.

For the compound `Cc1nc(-c2ccc(OCCCCCOc3ccc(C(=N)NO)cc3)cc2)c(CN2CCSCC2)s1` [Example 10, N-hydroxy-4-{5-[4-(2-methyl-5-thiomorpholin-4-ylmethyl-thiazol-4-yl)-phenoxy]-pentyloxy}-benzamidine], the inhibition at 1 µM in data set [1] was 92.9%. In addition, the Cell survival rate in the data set on MC3T3-E1 was 93.4%; in the data set with calvaria, 94.5%; in the data set on HOS, 101%.

As for `CNc1sc(C)nc1-c1ccc(OCCCCCOc2ccc(C(=N)NO)cc2)cc1` [Example 37, N-hydroxy-4-{5-[4-(2-methyl-5-methylamino-thiazol-4-yl)-phenoxy]-pentyloxy}-benzamidine], in data set [1] (setting [2]), the inhibition at 1 µM worked out at 83.3%. Moreover, the values for the Cell survival rate with MC3T3-E1, in the data set with calvaria and with HOS were 94.3%, 92.5% and 105.3%, respectively.
